Source: US20090305890A1, “METHOD OF CONTROLLING PLANTS” (SYNGENTA LIMITED, priority 2005, published 2009)

Legend:
Format in all cases: in vivo
[1] = tested on: paraquat resistant Lolium biotype RL 1; experiment: Greenhouse visual assessment of percentage control, Example 1; conditions: 14 days after applying
Procedure: (§1) Aqueous herbicidal compositions comprising water and paraquat alone at various application rates, glufosinate ammonium alone at various application rates and compositions containing water and combinations of these two herbicides were applied over certain paraquat resistant plants. Ammonium sulphate was included in all of the compositions at a concentration of 1% w/v. The effectiveness of the composition in controlling the plants was assessed visually 14 days after applying the herbicide. The assessment was made as a percentage control −0% representing no damage and 100% representing death of all the plants. The plants used were two paraquat resistant Lolium biotypes (referred to as RL 1 and RL 2, collected in South Africa). The plants were grown in a greenhouse to the two-three true leaves stage before the herbicide was applied. Three replicates of each treatment were carried out.
(§2) The results were analysed using the Colby formula which generates an expected level of control from the results obtained by using the individual components alone. This was compared with the actual level of control. The Colby formula predicts that the expected percentage level of control E for a particular combination of components is obtained as follows, in which P1 and P2 are the levels of control obtained by using the components alone
(§3) The figures given in the Synergy column in the table below are the difference between the predicted level of control and the actual level of control. A figure of zero means that the actual result is as predicted by the Colby equation. Any number above zero represents evidence of synergy. Numbers below zero may represent antagonism.

[2] = tested on: paraquat resistant Lolium biotype RL 2; experiment: as above; conditions: 14 days after applying
Procedure: as §1, §2, §3

[3] = tested on: paraquat resistant ryegrass (Lolium rigidum); experiment: Glasshouse study, visual percentage control, Example 2; conditions: Paraquat Resistant Population, 28 days after applying
Procedure: (§4) A glasshouse study was conducted with two biotypes of ryegrass (Lolium rigidum), one paraquat resistant and the other paraquat susceptible. The plants (3 leaf stage) were planted in pots at a density of approximately 14,000 plants/m^2 to simulate field infestation levels. The treatments were based on commercial formulations of paraquat and glufosinate were diluted in water including the adjuvants AMS (5%) and Agral 90 (0.25%). The treatments were applied to the plants in a spray volume equivalent to 400 lts/ha. Each treatment was replicated three times. The effectiveness of the treatments in controlling the plants was assessed visually 28 days after applying the herbicide. The assessment was made as a percentage control −0% representing no damage and 100% representing death of all the plants.

[4] = tested on: paraquat susceptible ryegrass (Lolium rigidum); experiment: as above; conditions: Paraquat Susceptible Population, 28 days after applying
Procedure: as §4

[5] = tested on: paraquat resistant ryegrass (Lolium rigidum); experiment: Glasshouse test of sequential (split) application, visual percentage control, Example 3; conditions: 28 days after the initial application
Procedure: A glasshouse test was conducted to examine the effect of applying the products sequentially (ie. in a split application), using paraquat resistant ryegrass (Lolium rigidum) plants. The plants were planted in pots and at the time of the initial application they were at the 4½ leaf stage. The treatments were based on commercial formulations of paraquat and glufosinate were diluted in water including the adjuvants AMS (5%) and Agral 90 (0.25%). The treatments' were applied to the plants in a spray volume equivalent to 400 lts/ha. Each treatment was replicated 3 times. The effectiveness of the treatments in controlling the plants was assessed visually 28 days after the initial application date. The assessment was made as a percentage control −0% representing no damage and 100% representing death of all the plants.

[6] = glufosinate ammonium 50 g/ha alone
[7] = glufosinate ammonium 100 g/ha alone
[8] = glufosinate ammonium 200 g/ha alone
[9] = glufosinate ammonium 400 g/ha alone
[10] = glufosinate ammonium 600 g/ha alone

C[n+]1ccc(-c2cc[n+](C)cc2)cc1 [Paraquat, 1,1′-dimethyl-4,4′-bipyridylium cation]
Average % control of RL 1 ([1]; paraquat 10 g/ha alone): 0%
Average % control of RL 1 ([1]; paraquat 20 g/ha alone): 0%
Average % control of RL 1 ([1]; paraquat 60 g/ha alone): 0%
Average % control of RL 1 ([1]; paraquat 80 g/ha alone): 17%
Average % control of RL 1 ([1]; paraquat 400 g/ha alone): 33%
Average % control of RL 1 ([1]; paraquat 1200 g/ha alone): 33%
Average % control of RL 1 ([1]; paraquat 2000 g/ha alone): 98%
Average % control of RL 1 ([1]; paraquat 4000 g/ha alone): 100%
Average % control of RL 2 ([2]; paraquat 10 g/ha alone): 0%
Average % control of RL 2 ([2]; paraquat 20 g/ha alone): 0%
Average % control of RL 2 ([2]; paraquat 60 g/ha alone): 0%
Average % control of RL 2 ([2]; paraquat 80 g/ha alone): 0%
Average % control of RL 2 ([2]; paraquat 400 g/ha alone): 0%
Average % control of RL 2 ([2]; paraquat 1200 g/ha alone): 7%
Average % control of RL 2 ([2]; paraquat 2000 g/ha alone): 3%
Average % control of RL 2 ([2]; paraquat 4000 g/ha alone): 42%
Percentage Control ([3]; Paraquat 600 g ai/ha): 29%
Percentage Control ([4]; Paraquat 600 g ai/ha): 100%
% Control ([5]; 600 g ai/ha): 58%

CP(=O)(O)CCC(N)C(=O)O (racemic) [glufosinate ammonium, ammonium 4-[hydrox(methyl)phosphinoyl]-DL-homoalaninate]
Average % control of RL 1 [1, 6]: 0%
Average % control of RL 1 [1, 7]: 0%
Average % control of RL 1 [1, 8]: 3%
Average % control of RL 1 [1, 9]: 2%
Average % control of RL 1 [1, 10]: 78%
Average % control of RL 2 [2, 6]: 0%
Average % control of RL 2 [2, 7]: 0%
Average % control of RL 2 [2, 8]: 2%
Average % control of RL 2 [2, 9]: 33%
Average % control of RL 2 [2, 10]: 89%
Percentage Control ([3]; Glufosinate 300 g ai/ha): 44%
Percentage Control ([4]; Glufosinate 300 g ai/ha): 85%
% Control ([5]; 150 g ai/ha): 0%
% Control ([5]; 200 g a/ha): 33%
% Control ([5]; 300 g ai/ha): 83%
